The text below walks through data of PMC9116478, “Population Pharmacokinetics of Caspofungin and Dose Simulations in Heart Transplant Recipients” (Antimicrobial Agents and Chemotherapy, 2022).

Where two headings read alike, the source gives them in different places. Where only a bound is given, the exact number is not on record here.

The conditions of series [1]: under normal plasma protein levels; cited from earlier work. The source says:
Kurland et al. ([26]) found a negative correlation between hypoalbuminemia and elimination rate constant. […] They also identified total bilirubin (TBIL) as another covariate. ALB and TBIL levels were collectively found to affect CL of caspofungin.

The test system of a further series is Candida albicans. Particulars: pharmacodynamic target used for PTA; cited from earlier work. The text has this:
(§1) This study used Matlab software for simulations. The simulated data were based on the virtual patients with different ALB levels (25, 30, 37, 45, and 50 g/liter) at various dosage regimens (50-, 70-, 100-, 150-, and 200-mg maintenance dose). The median ALB level of the research population was 37 g/liter. We generated 1,000 virtual patients whose pharmacokinetic parameters were randomly assigned according to the distributions with the median of CL, θALB-CL, and CL interindividual variations and their calculated standard deviations from bootstraps (Table 2) for the simulations. AUC was calculate ...

A further series deals with Candida glabrata. Particulars: pharmacodynamic target used for PTA; cited from earlier work.
Excerpt: as §1

The subject of a further series is Candida parapsilosis. Particulars: pharmacodynamic target used for PTA; cited from earlier work.
Excerpt: as §1

Series [2] can be described thus: Population pharmacokinetics of caspofungin in HTx and non-HTx patients (plasma LC-MS/MS, NONMEM two-compartment model). It is filed as in vivo, human (patients). Particulars: for clearance / Cmax: human, iv; for Cmax: read-out: Cmax (peak plasma concentration). The source says: This was a prospective, single-center, open-label study. We recruited patients who underwent HTx at the Guangdong Provincial People’s Hospital in the SICU from July 2019 to July 2021. The inclusion criteria were: (i) patients aged 18 years or older who received caspofungin in SICU and accepted cardiac surgery and (ii) acceptability of multiple blood sampling. Patients who were allergic to caspofungin, those receiving drugs that can affect the PK of caspofungin, and those who could not receive multiple blood sampling were excluded. Patients who underwent HTx in SICU were recruited as the HTx group. Patients who never received HTx but underwent cardiac surgery and being in SICU were recruited in the control group. This study was approved by the Ethics Committee of Guangdong Provincial People’s Hospital, Guangdong Academy of Medical Sciences (approval number GDREC2018355(R1)H).
Caspofungin (Laboratoires Merck Sharp & Dohme Chibret, France) was administered by 1-h intravenous infusion at a dose of 50 mg every 24 h after a loading dose of 70 mg. Blood samples were collected before administration and at 1, 2, 6, 10, 16, and 24 h after the administration of caspofungin for at least 3 days. Plasma was separated by centrifugation of blood samples at 2,000 × g for 10 min at 4°C and stored at −80°C before analysis.
All plasma samples were detected by the liquid chromatography-tandem mass spectrometry (LC-MS/MS) method. First, 200 μL of acetonitrile-dissolved extraction working solution was added to 100 μL of plasma sample and mixed by vortexing at 3,000 rpm for 1 min. After centrifugation at 14,000 rpm for 15 min at 4°C, 2 μL supernatant was injected for LC-MS/MS analysis. The chromatographic column was an Agilent poroshell 120 SB-C18 (2.7 μm, 3.0 × 50 mm) column. The mobile phase was acetonitrile with 0.1% formic acid (A) and water with 0.1% formic acid (B). In the initial 0 to 0.5 min, the mobile phase was composed of 95% B and 5% A, and then within 0.5 to 1.5 min, the mobile phase B decreased linearly from 95% to 5% and remained unchanged for 1.5 to 2 min. Finally, it returned to 95% B and 5% A, and the entire analysis time was 5 min. The flow rate was 0.5 mL/min, and the column temperature was 35°C. A positive ion mode multiple reaction monitoring detection mode through electrospray ionization was performed with the transitions of m/z 547.3 → 538.2 for caspofungin and m/z 549.3 → 540.3 for caspofungin-d4 (IS). The linear range of the method was 0.4 to 25 mg/liter. The intraday and interday precision were 1.56 to 3.32% and 3.40 to 7.48%, respectively, and the deviation of accuracy was 0.96 to 2.21%.
We analyzed population PK data using the nonlinear mixed-effects modeling software NONMEM 7.3 (version 7.3, ICON plc, NY, USA). We employed one-, two-, and three-compartment pharmacokinetic models to fit the data and selected the most suitable basic structural model. Further, all potential covariates for caspofungin PK parameters reported in previous studies were analyzed. The covariates included demographic characteristics, renal function indices, liver function indices, HTx status, ECMO, and CRRT. Different covariate types have different variable models. Discrete covariates (such as sex) were modeled as follows. (1) Cij=Ctv,j×θjcov×enj
For continuous covariates (such as weight), an exponential model was selected with average covariates values and an adjusting factor. (2) Cij=Ctv,j×(cov/covave)^θj×e^ηj
In the above equations, Cij is the individual value. Ctv,j is the population typical value. cov in equation 1 is expressed as 0 or 1, cov in equation 2 is the value of the covariate, and θj is an impact factor. covave is the average value of a continuous covariate. Interindividual variability is shown as ηj, which is normally distributed with mean 0 and variance ω^2. Residual variability was modeled using a mixture of additive and proportional error models. […]

Setting [3] is: Control group (n = 31), median (range).
Where [4] appears, read: Heart transplantation group (n = 27), median (range).
Where [5] appears, read: population estimate, 58 patients, 414 plasma concentrations, 50 mg q24h i.v. after 70 mg loading dose, two-compartment model.

In the case of `CC[C@H](C)C[C@H](C)CCCCCCCCC(=O)N[C@H]1C[C@@H](O)[C@@H](NCCN)NC(=O)[C@@H]2[C@@H](O)CCN2C(=O)[C@H]([C@H](O)CCN)NC(=O)[C@H]([C@H](O)[C@@H](O)c2ccc(O)cc2)NC(=O)[C@@H]2C[C@@H](O)CN2C(=O)[C@H]([C@@H](C)O)NC1=O` [caspofungin], the protein binding rate in series [1] is on record as 97%. Moreover, the entries for the “target AUC/MIC value” in the series on Candida albicans, in the series with Candida glabrata and in the series on Candida parapsilosis were “greater than 865”, greater than 450 and > 1,185, respectively. Moreover, the Vc is 5.27 L in series [2] (setting [3]) and 3.14 L in series [2] (setting [4]). Besides, the Vp in series [2] (setting [3]) amounted to 6.31 L; in series [2] (setting [4]), 4.98 L. The compound further gave a Q in series [2] (control group, median) of 2.85 L/h. Besides, the clearance in series [2] (population estimate, 58 patients (27 HTx, 31 non-HTx), 414 plasma concentrations, 50 mg q24h 1-h i.v. infusion after 70 mg loading dose, LC-MS/MS, two-compartment model, read-out: CL (clearance), final model estimate (converted)) is 6.42 mL/min; in series [2] (plasma, 50 mg, Control group (n = 31), median (range), read-out: CL (converted)), 7.5 mL/min; in series [2] (plasma, 50 mg, Heart transplantation group (n = 27), median (range), read-out: CL (converted)), 5.83 mL/min. Besides, the Cmax turned out to be 7890 ng/mL in series [2] (plasma, 50 mg, Control group, non-HTx critically ill patients (n = 31), median (range), 50 mg q24h 1-h i.v. infusion after 70 mg loading dose) and 11700 ng/mL in series [2] (plasma, 50 mg, Heart transplantation group (n = 27), median (range), 50 mg q24h 1-h i.v. infusion after 70 mg loading dose). Moreover, the “Q (intercompartmental clearance), final model estimate” value in series [2] (setting [5]) is 2.85 L/h. Further, the “Vc (volume of distribution of the central compartment), final model estimate” value in series [2] (setting [5]) was 4.27 L. In series [2] (setting [5]), the “Vp (volume of distribution of the peripheral compartment), final model estimate” value was 6.01 L.
